Measurements taken from patent publication US10065990B2, “Cyclic peptide compound, and preparation method, pharmaceutical composition and use thereof” (HANGZHOU GUANYU BIO-MEDICAL CO., LTD, priority 2013, dated 2018).
Where two headings read alike, the source gives them in different places.

Legend:
[1] = biological target: T1, HDAC8 (Homo sapiens, UniProt Q9BY41); experiment: HDAC biochemical activity measurement (fluorescent substrate deacetylation); settings: 37° C. 30 minutes
T1 sequence (Q9BY41 1-377): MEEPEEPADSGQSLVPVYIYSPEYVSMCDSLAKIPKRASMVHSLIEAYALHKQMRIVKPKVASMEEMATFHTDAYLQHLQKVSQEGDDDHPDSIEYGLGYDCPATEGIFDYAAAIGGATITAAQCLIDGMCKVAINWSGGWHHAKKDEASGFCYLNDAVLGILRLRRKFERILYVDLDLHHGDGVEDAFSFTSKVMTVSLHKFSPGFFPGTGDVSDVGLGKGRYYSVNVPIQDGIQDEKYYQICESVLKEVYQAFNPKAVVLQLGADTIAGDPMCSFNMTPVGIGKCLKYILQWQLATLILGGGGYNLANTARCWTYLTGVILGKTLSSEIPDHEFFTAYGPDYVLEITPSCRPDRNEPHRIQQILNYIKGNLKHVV

[2] = biological target: HDAC3 (Homo sapiens, UniProt O15379); experiment: as above; settings: read-out: IC50 HDAC3; HDAC3; 37° C. 30 minutes;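 also: fluorogenic acetyl-lysine substrate (20 µM) deacetylated by HDAC3, then developer added for 15 min at room temperature, release of fluorophore read at excitation 360 nm, emission 460 nm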
Sequence of HDAC3 (O15379 whole entry, species assumed): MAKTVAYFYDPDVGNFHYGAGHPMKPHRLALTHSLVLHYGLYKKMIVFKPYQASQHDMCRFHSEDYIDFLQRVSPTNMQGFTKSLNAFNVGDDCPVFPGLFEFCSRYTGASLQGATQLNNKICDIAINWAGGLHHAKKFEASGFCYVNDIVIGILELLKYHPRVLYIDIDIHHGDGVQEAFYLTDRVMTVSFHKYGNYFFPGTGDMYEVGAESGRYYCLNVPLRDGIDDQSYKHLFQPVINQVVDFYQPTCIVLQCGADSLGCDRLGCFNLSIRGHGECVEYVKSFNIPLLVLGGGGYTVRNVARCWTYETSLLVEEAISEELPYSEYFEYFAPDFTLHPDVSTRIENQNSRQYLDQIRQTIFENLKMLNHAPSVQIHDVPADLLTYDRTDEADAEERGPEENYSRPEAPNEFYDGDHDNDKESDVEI
Sequence of HDAC3 (Q9Y618 395-489 partner limits assumed, species assumed): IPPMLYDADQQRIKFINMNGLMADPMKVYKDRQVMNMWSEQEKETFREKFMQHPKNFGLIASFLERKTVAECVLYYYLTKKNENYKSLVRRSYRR

[3] = biological target: HDAC2 (Homo sapiens, UniProt Q92769); experiment: as above; settings: 37° C. 30 minutes;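 also: HDAC2 enzyme with an acetyl-lysine fluorescent substrate, then developer added, fluorescence read at excitation 360 nm and emission 460 nm, inhibition measured across several compound concentrations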
Sequence of HDAC2 (Q92769 whole entry, species assumed): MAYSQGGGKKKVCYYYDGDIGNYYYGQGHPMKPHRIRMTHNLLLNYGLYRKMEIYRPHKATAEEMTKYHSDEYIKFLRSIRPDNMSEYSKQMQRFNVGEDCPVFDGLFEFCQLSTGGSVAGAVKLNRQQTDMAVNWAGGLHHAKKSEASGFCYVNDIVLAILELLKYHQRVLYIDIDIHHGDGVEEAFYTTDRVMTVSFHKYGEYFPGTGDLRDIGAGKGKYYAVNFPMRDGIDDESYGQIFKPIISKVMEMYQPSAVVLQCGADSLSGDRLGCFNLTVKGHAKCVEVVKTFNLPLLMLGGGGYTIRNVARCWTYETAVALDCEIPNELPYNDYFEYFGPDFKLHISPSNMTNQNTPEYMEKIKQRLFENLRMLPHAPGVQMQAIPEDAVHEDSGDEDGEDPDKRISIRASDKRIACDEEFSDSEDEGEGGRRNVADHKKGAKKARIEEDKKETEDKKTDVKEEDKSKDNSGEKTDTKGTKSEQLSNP

[4] = biological target: T2, HDAC11 (Homo sapiens, UniProt Q96DB2); experiment: as above; settings: read-out: IC50 HDAC11; HDAC11; 37° C. 30 minutes;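 also: HDAC11 enzyme acting on an acetyl-lysine fluorogenic substrate, then a developer frees the fluorophore, read at excitation 360 nm and emission 460 nm, IC50 over a compound dilution series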
T2 sequence (Q96DB2 1-347): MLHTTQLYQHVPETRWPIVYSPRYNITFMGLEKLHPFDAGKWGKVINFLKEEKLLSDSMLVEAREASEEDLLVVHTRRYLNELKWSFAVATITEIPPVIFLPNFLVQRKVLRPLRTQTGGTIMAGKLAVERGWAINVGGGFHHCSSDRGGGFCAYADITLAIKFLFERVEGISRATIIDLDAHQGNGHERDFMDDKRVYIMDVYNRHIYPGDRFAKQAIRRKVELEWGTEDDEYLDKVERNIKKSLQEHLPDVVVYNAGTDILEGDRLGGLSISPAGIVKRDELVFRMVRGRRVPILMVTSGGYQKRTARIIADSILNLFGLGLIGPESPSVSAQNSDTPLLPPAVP
Description: (§2) The chemical activity of the compound is determined according to the degree of deacetylation inhibition of the HDAC enzyme. This experiment measured the degree of deacetylation related to tumor proliferation and metastasis of HDAC1, HDAC2, HDAC3, HDAC8, HDAC11 five subtypes HDAC enzymes. After the substrate containing an acetylated lysine side chain and HDAC enzyme are labeled with a fluorescent label, the fluorescent substrate is de acetyl. The fluorescent labeled substrate is cleaved by the enzyme, and the fluorescent substance is released, which generates 460 nm emission light under the excitation of 360 nm light.
(§3) HDAC substrate was diluted with reaction buffer to 200M (reaction concentration of 20M), the HDAC enzyme was diluted to the appropriate concentration, then added different concentrations of the test compounds and acted at 37° C. 30 minutes, and then added the same volume of 2-times concentration substrate developing solution (developer), incubated at room temperature for 15 minutes.

[5] = biological target: HDAC1 (Homo sapiens, UniProt Q13547); experiment: as above
Sequence of HDAC1 (Q13547 whole entry, species assumed): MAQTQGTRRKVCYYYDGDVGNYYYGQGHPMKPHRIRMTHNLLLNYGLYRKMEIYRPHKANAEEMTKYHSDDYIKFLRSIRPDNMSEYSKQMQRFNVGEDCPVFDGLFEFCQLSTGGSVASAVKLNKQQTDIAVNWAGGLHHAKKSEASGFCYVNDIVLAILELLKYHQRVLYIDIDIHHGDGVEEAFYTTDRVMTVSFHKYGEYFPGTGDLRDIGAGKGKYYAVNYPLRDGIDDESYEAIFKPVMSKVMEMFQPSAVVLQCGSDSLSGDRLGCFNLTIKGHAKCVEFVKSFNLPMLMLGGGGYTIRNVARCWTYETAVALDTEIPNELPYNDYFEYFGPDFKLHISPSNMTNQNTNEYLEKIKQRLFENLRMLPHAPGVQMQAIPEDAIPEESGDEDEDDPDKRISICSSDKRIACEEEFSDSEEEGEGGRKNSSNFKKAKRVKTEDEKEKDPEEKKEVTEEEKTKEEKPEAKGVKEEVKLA
Description: as §2, §3

[6] = tested on: A549 (human lung cancer cells); experiment: MTT cancer cell growth inhibition; type: cell-based; settings: MTT, 72 hours incubation; read-out: GI50 A54
How it was run: (§1)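 Growth inhibition is scored with MTT after three days of compound treatment spanning 10^−5–10^−10 M. Cells are maintained in DMEM or 1640 medium containing 10% FBS and plated at 1500 per well the previous night; absorbance at 570 nm gives viability, from which GI50 is calculated.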

[7] = tested on: HT1080 (human fibrosarcoma cells); experiment: MTT cancer cell growth inhibition; type: cell-based; settings: MTT, 72 hours incubation; read-out: GI50 HT1
How it was run: as §1

[8] = tested on: BGC-823 (human gastric cancer cells); experiment: MTT cancer cell growth inhibition; type: cell-based; settings: MTT, 72 hours incubation; read-out: GI50 BG
How it was run: as §1

[9] = tested on: DU145 (human prostate cancer cells); experiment: MTT cancer cell growth inhibition; type: cell-based; settings: MTT, 72 hours incubation; read-out: GI50 Du1
How it was run: as §1

[10] = tested on: U937 (human leukemia cells); experiment: MTT cancer cell growth inhibition; type: cell-based; settings: MTT, 72 hours incubation; read-out: GI50 U93
How it was run: as §1

[11] = tested on: Hela (human cervical cancer cells); experiment: MTT cancer cell growth inhibition; type: cell-based; settings: MTT, 72 hours incubation; read-out: GI50 Hela
How it was run: as §1

[12] = tested on: MOLT-4 (human acute lymphoblastic leukemia cells); experiment: MTT cancer cell growth inhibition; type: cell-based; settings: MTT, 72 hours incubation; read-out: GI50 Mol
How it was run: as §1

[13] = tested on: lncap (prostate cancer cells); experiment: MTT cancer cell growth inhibition; type: cell-based; settings: MTT, 72 hours incubation; read-out: GI50 lnca
How it was run: as §1

[14] = tested on: MCF-7 (human breast cancer cells); experiment: MTT cancer cell growth inhibition; type: cell-based; settings: 72 hours incubation, read-out: GI50 MCF
How it was run: as §1

[15] = tested on: PANC-1 (Pac-1, human pancreatic cancer cells); experiment: MTT cancer cell growth inhibition; type: cell-based; settings: MTT, 72 hours incubation; read-out: GI50 PAN
How it was run: as §1

[16] = biological target: T3, HDAC7 (Homo sapiens, UniProt Q8WUI4); experiment: HDAC biochemical activity measurement (fluorescent substrate deacetylation);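 also: fluorogenic deacetylation assay using acetyl-lysine substrate at 20 µM, enzyme and compound incubated 30 min at 37 °C, then developer added, fluorescence read at 360/460 nm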; settings: HDAC7; 37° C. 30 minutes
T3 sequence (Q8WUI4 1-952): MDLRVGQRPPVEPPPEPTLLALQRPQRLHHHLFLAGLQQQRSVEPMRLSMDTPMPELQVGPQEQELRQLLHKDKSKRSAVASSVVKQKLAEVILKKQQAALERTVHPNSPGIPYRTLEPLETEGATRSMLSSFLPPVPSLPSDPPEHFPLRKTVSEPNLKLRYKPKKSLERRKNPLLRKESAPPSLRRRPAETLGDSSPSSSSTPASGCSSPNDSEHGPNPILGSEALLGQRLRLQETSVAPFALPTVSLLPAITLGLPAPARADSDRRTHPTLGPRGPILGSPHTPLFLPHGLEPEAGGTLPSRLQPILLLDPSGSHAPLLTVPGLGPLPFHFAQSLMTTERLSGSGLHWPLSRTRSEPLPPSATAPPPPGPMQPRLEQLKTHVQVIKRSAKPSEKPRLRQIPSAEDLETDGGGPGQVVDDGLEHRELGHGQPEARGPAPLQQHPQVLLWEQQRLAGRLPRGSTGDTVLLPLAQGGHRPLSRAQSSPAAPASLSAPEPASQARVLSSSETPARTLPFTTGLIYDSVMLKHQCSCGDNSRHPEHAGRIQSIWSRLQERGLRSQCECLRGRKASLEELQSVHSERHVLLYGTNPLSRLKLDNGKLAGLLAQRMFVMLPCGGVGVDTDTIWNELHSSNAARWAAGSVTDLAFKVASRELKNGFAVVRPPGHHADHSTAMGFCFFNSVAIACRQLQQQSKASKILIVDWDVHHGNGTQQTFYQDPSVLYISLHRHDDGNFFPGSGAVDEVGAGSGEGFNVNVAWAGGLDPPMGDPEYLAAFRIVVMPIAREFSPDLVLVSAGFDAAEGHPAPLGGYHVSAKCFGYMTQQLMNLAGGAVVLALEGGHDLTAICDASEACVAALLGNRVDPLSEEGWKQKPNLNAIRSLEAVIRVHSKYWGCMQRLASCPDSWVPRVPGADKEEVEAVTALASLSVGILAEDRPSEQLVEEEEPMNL

[17] = HDAC1, 37° C. 30 minutes, read-out: IC50 HDAC1
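For IC50 HDAC1 in this document: fluorogenic acetyl-lysine substrate (20 µM) deacetylated by HDAC1, then developer releases fluorophore read at 360 nm excitation and 460 nm emission, inhibitor incubated 30 min at 37 °C.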
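For IC50 HDAC1, C (six-membered ring with substituents) in this document: fluorogenic acetyl-lysine substrate (20 µM) deacetylated by HDAC1, then developer releases fluorophore read at 360 nm excitation and 460 nm emission, inhibitor incubated 30 min at 37 °C.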

IC50 [1] [nM]	IC50 [2] [nM]	IC50 [3] [nM]	IC50 [4] [nM]	IC50 [5, 17] [nM]	IC50 ([5]; Table 3, column C, read-out: IC50 HDAC1, C (six-membered ring with substituents)) [nM]	GI50 [6] [nM]	GI50 [7] [nM]	GI50 [8] [nM]	GI50 [9] [nM]	GI50 [10] [nM]	GI50 [11] [nM]	GI50 [12] [nM]	GI50 [13] [nM]	GI50 [14] [nM]	GI50 [15] [nM]	IC50 HDAC7 [16]	Compound
38	48	46	73	16	16	60	70	70	10	30	80	20	20	50	70	–	C/C=C1\NC(=O)c2cc(F)cc(n2)CNC(=O)C[C@@H](/C=C/CCSC(C)=O)OC(=O)[C@H](C(C)C)NC1=O [Compound 49]
26	29	43	105	84	–	–	–	–	–	–	–	–	–	–	–	no activity	C/C=C1\NC(=O)c2ccc(F)c(n2)CNC(=O)C[C@@H](/C=C/CCSC=O)OC(=O)[C@H](C(C)C)NC1=O [Example 53]
